Test results taken from the supplement of paper PMC11061612.

What was measured:
Experiment in all cases: Bliss excess, mean over the matrix (fraction); higher = more synergy
[1] = test system: SK-OV-3 (Ovarian Carcinoma)
Summary of the method: (§1)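 Cell lines in DMEM/F12 or RPMI with 10% FBS were plated in 1536-well plates, held 24 hours at 37°C, 5% CO2, then given two-drug dose matrices for 72 hours (DMSO typically 0.2%). Viability was read by CellTiter-Glo 2.0 luminescence and scaled as inhibition from 0 (vehicle wells) to 1 (blank wells). Combination Emax is the second-highest inhibition in the matrix; Bliss excess is observed combination effect minus expected EA + EB − EA·EB, EA and EB being single-agent effects.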

[2] = test system: SU-DHL-6 (B-Cell Non-Hodgkin's Lymphoma)
Summary of the method: as §1

[3] = test system: EN (Endometrial Carcinoma)
Summary of the method: as §1

[4] = test system: SUP-T1 (T-Lymphoblastic Leukemia)
Summary of the method: as §1

[5] = test system: OC-314 (Ovarian Carcinoma)
Summary of the method: as §1

[6] = test system: SW1271 (Small Cell Lung Carcinoma)
Summary of the method: as §1

[7] = test system: NCI-H2461 (Mesothelioma)
Summary of the method: as §1

[8] = test system: K5 (Thyroid Gland Carcinoma)
Summary of the method: as §1

[9] = test system: NB14 (Neuroblastoma)
Summary of the method: as §1

[10] = test system: LoVo (Colorectal Carcinoma)
Summary of the method: as §1

[11] = test system: NCI-H28 (Mesothelioma)
Summary of the method: as §1

[12] = test system: LU-139 (Small Cell Lung Carcinoma)
Summary of the method: as §1

[13] = test system: HO-1-u-1 (Oral Cavity Carcinoma)
Summary of the method: as §1

[14] = test system: RPMI-6666 (Non-Cancerous)
Summary of the method: as §1

[15] = test system: HARA (Squamous Cell Lung Carcinoma)
Summary of the method: as §1

[16] = test system: Hs-633T (Other Solid Carcinomas)
Summary of the method: as §1

[17] = test system: RT-112 (Bladder Carcinoma)
Summary of the method: as §1

[18] = test system: CAPAN-1 (Pancreatic Carcinoma)
Summary of the method: as §1

[19] = test system: CAL-54 (Kidney Carcinoma)
Summary of the method: as §1

[20] = test system: NCI-H69 (Small Cell Lung Carcinoma)
Summary of the method: as §1

| Structure (SMILES) | Bliss excess [1] | Bliss excess [2] | Bliss excess [3] | Bliss excess [4] | Bliss excess [5] | Bliss excess [6] | Bliss excess [7] | Bliss excess [8] | Bliss excess [9] | Bliss excess [10] | Bliss excess [11] | Bliss excess [12] | Bliss excess [13] | Bliss excess [14] | Bliss excess [15] | Bliss excess [16] | Bliss excess [17] | Bliss excess [18] | Bliss excess [19] | Bliss excess [20] |
| --- | --- | --- | --- | --- | --- | --- | --- | --- | --- | --- | --- | --- | --- | --- | --- | --- | --- | --- | --- | --- |
| O=C(c1cc(Cc2n[nH]c(=O)c3ccccc23)ccc1F)N1CCN(C(=O)C2CC2)CC1 [Olaparib] + CN(CC[C@H](CSC1=CC=CC=C1)NC2=C(C=C(C=C2)S(=O)(=O)NC(=O)C3=CC=C(C=C3)N4CCC(CC4)[C@H](C5=CC=CC=C5C6=CC=C(C=C6)Cl)O)S(=O)(=O)C(F)(F)F)CCO [AZD4320] (first compound max 10 µM, 7x7, partner max 1 µM) | -0.0672 | 0.0091 | -0.0184 | -0.0301 | -0.0165 | -0.0291 | -0.0534 | -0.0148 | 0.0027 | -0.0225 | -0.0353 | 0.0154 | 0.0123 | 0.0694 | -0.0379 | 0.0017 | -0.0305 | -0.0347 | -0.0021 | 0.0294 |
| Cc1c2c(nn1C)CSCc1cc(n(C)n1)CSc1cc(c3ccccc3c1)OCCCc1c(C(=O)O)n(C)c3c-2c(Cl)ccc13 [AZD5991] + CC(=O)O[C@H]1C(=O)[C@@]2(C)[C@H]([C@H](OC(=O)c3ccccc3)[C@]3(O)C[C@H](OC(=O)[C@H](O)[C@@H](NC(=O)c4ccccc4)c4ccccc4)C(C)=C1C3(C)C)[C@]1(OC(C)=O)CO[C@@H]1C[C@@H]2O [Paclitaxel] (first compound max 1 µM, 7x7, partner max 3 µM) | -0.028 | 0.0125 | 0.149 | -0.0847 | -0.0078 | -0.0228 | -0.0417 | -0.0361 | -0.0212 | -0.122 | -0.0549 | -0.0361 | 0.214 | -0.0139 | -0.003 | 0.005 | 0.0162 | -0.0006 | -0.0639 | -0.0504 |
| N#Cc1cnc(Nc2cc(NC[C@H]3CNCCO3)c(C(F)(F)F)cn2)cn1 [SRA737] + CCc1c2c(nc3ccc(O)cc13)-c1cc3c(c(=O)n1C2)COC(=O)[C@]3(O)CC [SN-38] (first compound max 10 µM, 7x7, partner max 0.3 µM) | -0.0464 | 0.0295 | -0.0706 | -0.0989 | -0.0056 | -0.0752 | -0.0351 | -0.043 | -0.0148 | -0.0227 | -0.104 | -0.0305 | 0.106 | -0.0707 | -0.0628 | -0.0402 | 0.138 | -0.0974 | -0.0693 | 0.0781 |
| N#Cc1cnc(Nc2cc(NC[C@H]3CNCCO3)c(C(F)(F)F)cn2)cn1 [SRA737] + C=CCn1c(=O)c2cnc(Nc3ccc(N4CCN(C)CC4)cc3)nc2n1-c1cccc(C(C)(C)O)n1 [AZD1775] (first compound max 10 µM, partner max 1 µM) | -0.0357 | 0.131 | 0.0422 | -0.0003 | 0.165 | -0.0045 | 0.0428 | -0.0051 | 0.0644 | 0.0837 | 0.0829 | -0.0015 | 0.0809 | -0.0021 | 0.0442 | 0.0888 | 0.107 | -0.0663 | 0.0005 | 0.0231 |
| CN(CCO)CC[C@H](CSc1ccccc1)Nc1ccc(S(=O)(=O)NC(=O)c2ccc(N3CCC([C@@H](O)c4ccccc4-c4ccc(Cl)cc4)CC3)cc2)cc1S(=O)(=O)C(F)(F)F [AZD4320] + CS(=O)(=O)CCNCc1ccc(-c2ccc3ncnc(Nc4ccc(OCc5cccc(F)c5)c(Cl)c4)c3c2)o1 [Lapatinib] (first compound max 1 µM, 7x7, partner max 10 µM) | -0.0007 | 0.0749 | -0.0532 | 0.0226 | 0.0535 | -0.0178 | 0.0115 | 0.0213 | 0.0356 | -0.0216 | 0.0075 | 0.0054 | 0.0591 | -0.0208 | 0.027 | -0.0023 | 0.0152 | -0.021 | 0.0171 | 0.0363 |
| CC1(C)CCC(CN2CCN(c3ccc(C(=O)NS(=O)(=O)c4ccc(NCC5CCOCC5)c([N+](=O)[O-])c4)c(Oc4cnc5[nH]ccc5c4)c3)CC2)=C(c2ccc(Cl)cc2)C1 [Venetoclax] + CS(=O)(=O)CCNCc1ccc(-c2ccc3ncnc(Nc4ccc(OCc5cccc(F)c5)c(Cl)c4)c3c2)o1 [Lapatinib] (first compound max 1 µM, 7x7, partner max 10 µM) | -0.0032 | 0.0481 | -0.0492 | -0.0249 | 0.0051 | -0.0239 | -0.04 | -0.0404 | 0.0606 | -0.0768 | -0.0426 | -0.0061 | 0.0094 | 0.0423 | -0.02 | -0.0041 | -0.0371 | -0.0262 | -0.0788 | 0.0391 |
| Cc1cc2ncnn2cc1Nc1ncc2c(n1)n(C1CCOCC1)c(=O)n2C [AZD7648] + COc1cc([C@@H]2c3cc4c(cc3[C@@H](O[C@@H]3O[C@@H]5CO[C@@H](C)O[C@H]5[C@H](O)[C@H]3O)[C@H]3COC(=O)[C@H]23)OCO4)cc(OC)c1O [Etoposide] (first compound max 10 µM, 7x7, partner max 10 µM) | -0.0497 | 0.0914 | 0.0565 | 0.07 | 0.152 | 0.0441 | 0.0136 | 0.1 | 0.0704 | 0.0689 | 0.0548 | 0.101 | 0.11 | 0.0224 | 0.105 | 0.174 | 0.17 | -0.0034 | 0.0605 | 0.0783 |
| O=C(c1cc(Cc2n[nH]c(=O)c3ccccc23)ccc1F)N1CCN(C(=O)C2CC2)CC1 [Olaparib] + COc1nnc2ccc(N3CCC(c4ccc(OCCN5CCN(C)C(=O)[C@H]5C)cc4)CC3)nn12 [AZD5153] (first compound max 10 µM, 7x7, partner max 1 µM) | -0.0296 | -0.0338 | -0.0427 | -0.0512 | -0.0341 | -0.0668 | -0.118 | -0.0392 | -0.004 | -0.0338 | -0.0529 | -0.0194 | -0.0022 | -0.0487 | -0.0775 | 0.0223 | -0.0332 | -0.0573 | -0.0923 | 0.0144 |
| N#Cc1cnc(Nc2cc(NC[C@H]3CNCCO3)c(C(F)(F)F)cn2)cn1 [SRA737] + O=c1[nH]cc(F)c(=O)[nH]1 [5-Fluorouracil] (first compound max 10 µM, 7x7, partner max 20 µM) | -0.0597 | 0.0498 | -0.0338 | 0.0112 | 0.114 | -0.0472 | -0.0256 | -0.0459 | 0.0321 | 0.0238 | -0.0043 | 0.0169 | -0.0774 | -0.003 | -0.0379 | -0.0246 | 0.0881 | 0.0479 | -0.0373 | -0.0461 |
| Cc1c2c(nn1C)CSCc1cc(n(C)n1)CSc1cc(c3ccccc3c1)OCCCc1c(C(=O)O)n(C)c3c-2c(Cl)ccc13 [AZD5991] + CS(=O)(=O)CCNCc1ccc(-c2ccc3ncnc(Nc4ccc(OCc5cccc(F)c5)c(Cl)c4)c3c2)o1 [Lapatinib] (first compound max 1 µM, 7x7, partner max 10 µM) | 0.0591 | 0.0085 | -0.0129 | -0.0863 | 0.0453 | -0.0749 | -0.0273 | -0.0063 | 0.0335 | -0.0052 | 0.0147 | -0.0068 | 0.0293 | -0.1 | 0.0632 | -0.008 | 0.0426 | -0.0147 | 0.0368 | -0.0745 |
